Experimental data published in PubChem BioAssay (NCI).
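Values below derive from 48-hour exposures of cells grown in 96-well plates, with endpoints linearly interpolated between the two concentrations bracketing the appropriate inhibition level. Here, GI50 denotes the concentration required for 50% inhibition of growth. At the TGI there is no net growth.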

Legend:
Test in all cases: growth of human tumour cells (NCI), 48 h
SK-MEL-2 melanoma = system: SK-MEL-2 melanoma
OVCAR-3 ovarian = system: OVCAR-3 ovarian
RPMI-8226 leukemia = system: RPMI-8226 leukemia
NCI-H226 lung = system: NCI-H226 lung
IGROV1 ovarian = system: IGROV1 ovarian
K-562 leukemia = system: K-562 leukemia
SW-620 colon = system: SW-620 colon
M14 melanoma = system: M14 melanoma
786-0 renal = system: 786-0 renal
HS 578T breast = system: HS 578T breast

Row | Structure (SMILES) | TGI (SK-MEL-2 melanoma) [µM] | TGI (OVCAR-3 ovarian) [µM] | TGI (RPMI-8226 leukemia) [µM] | TGI (NCI-H226 lung) [µM] | TGI (IGROV1 ovarian) [µM] | TGI (K-562 leukemia) [µM] | TGI (SW-620 colon) [µM] | TGI (M14 melanoma) [µM] | TGI (786-0 renal) [µM] | GI50 (SK-MEL-2 melanoma) [µM] | GI50 (OVCAR-3 ovarian) [µM] | GI50 (RPMI-8226 leukemia) [µM] | GI50 (IGROV1 ovarian) [µM] | GI50 (K-562 leukemia) [µM] | GI50 (SW-620 colon) [µM] | GI50 (M14 melanoma) [µM] | GI50 (HS 578T breast) [µM] | TGI (HS 578T breast) [µM] | GI50 (786-0 renal) [µM] | GI50 (NCI-H226 lung) [µM]
1 | Cc1nnc2c3nnc(C)n3c3ccccc3n12 | > 100 | > 100 | > 100 | > 100 | > 100 | > 100 | > 100 | > 100 | > 100 | – | – | – | – | – | – | – | – | – | – | –
2 | N#CC1CCCCOCCOCCOCCOCCOCCCCCC1=O (configuration not stated) | > 100 | > 100 | > 100 | > 100 | > 100 | > 100 | > 100 | > 100 | > 100 | – | – | – | – | – | – | – | – | – | – | –
3 | Cc1cc(-c2ccccc2)nc(Nc2nc3ccccc3o2)n1 | > 100 | > 100 | > 100 | > 100 | > 100 | > 100 | > 100 | > 100 | > 100 | – | – | – | – | – | – | – | – | – | – | –
4 | O=[N+]([O-])c1ccc(Cl)c(C2CC(c3cccc4ccccc34)=Nc3ccccc3S2)c1 (configuration not stated) | 62.8 | 51.2 | > 47.5 | > 67.1 | > 100 | > 69.6 | > 66.7 | 63.4 | 30.4 | – | – | – | – | – | – | – | – | – | – | –
5 | Cc1ccc(NC(=O)C2C(=O)N(c3ccc(C)c(C)c3)C(=O)/C2=N\NC(N)=O)cc1C (configuration not stated) | > 100 | > 100 | > 100 | > 100 | > 100 | > 100 | > 100 | > 100 | > 100 | – | – | – | – | – | – | – | – | – | – | –
6 | CCCCCCCCCCCCCCCCNCCCN(C)CCCN | 41.8 | 35.9 | 46.2 | 39.3 | 43.1 | 49.5 | 36.3 | 30.8 | 28.9 | – | – | – | – | – | – | – | – | – | – | –
7 | COc1ccccc1C1=C(Nc2ccccc2)C(=O)NC1=O | > 25 | > 25 | > 25 | – | > 25 | > 25 | > 25 | > 25 | > 25 | > 25 | > 25 | > 25 | > 25 | > 25 | > 25 | > 25 | 6.25 | > 25 | > 25 | –
8 | O=[N+]([O-])c1ccc(-c2noc(-c3ccc(Cl)cc3)c2C2=NCCN2)cc1 | > 100 | > 100 | > 100 | > 100 | > 100 | > 100 | > 100 | > 100 | > 100 | – | – | – | – | – | – | – | – | – | – | –
9 | COc1cc(OC)c2nccc(NCCCN(C)C)c2c1[N+](=O)[O-] | > 100 | > 100 | > 100 | – | > 100 | > 100 | > 100 | > 100 | > 100 | – | – | – | – | – | – | – | – | > 100 | – | –
10 | Nc1nc(N)c(C=Nc2ccc(Br)cc2)c(Nc2ccc(Br)cc2)n1 | 23 | 25.3 | 38.7 | – | 46.2 | 8.68 | 99.1 | 21.4 | 23 | 10.2 | 11.8 | 16.6 | 8.72 | 2.91 | 14.1 | 9.59 | 8.96 | 26.8 | 11.1 | –
11 | Cc1cccc(C(C)C)c1N1C(=O)C(=O)C(c2nc3ccccc3o2)C(=O)C1=O | > 100 | > 100 | – | > 100 | > 100 | > 100 | > 100 | > 100 | > 100 | – | – | – | – | – | – | – | – | – | – | –
12 | O=C(CCC(=O)Nc1ccc(Cl)c(Cl)c1)CC(=O)c1ccc(F)cc1 | – | > 100 | – | > 100 | > 100 | > 100 | > 100 | > 100 | > 100 | – | – | – | – | – | – | – | – | – | – | –
13 | O=C(CSc1ncn[nH]1)C[P+](c1ccccc1)(c1ccccc1)c1ccccc1 | > 100 | > 100 | – | – | > 100 | > 100 | > 100 | > 100 | > 100 | – | – | – | – | – | – | – | – | – | – | –
14 | CN(C)c1ccc(/C=C/c2ccc(/C=C/c3ccc(N(C)C)cc3)cc2)cc1 | > 100 | > 100 | > 100 | > 100 | > 100 | > 100 | > 100 | > 100 | > 100 | – | – | – | – | – | – | – | – | – | – | –
15 | CCCCC(C)C(OC(=O)CC(CC(=O)O)C(=O)O)C(CC(C)CC(O)CCCCC(O)CC(O)C(C)N)OC(=O)CC(CC(=O)O)C(=O)O (configuration not stated) | > 100 | > 100 | > 100 | > 100 | > 100 | > 100 | > 100 | > 100 | > 100 | – | – | – | – | – | – | – | – | – | – | –
16 | O=C(CC1(O)C(=O)Nc2ccc(Br)cc21)c1ccc(Cl)cc1Cl (configuration not stated) | > 100 | > 100 | 50.7 | > 100 | > 100 | > 100 | > 100 | > 100 | > 100 | – | – | – | – | – | – | – | – | – | – | –
17 | COc1cccc(-c2ccc3c(c2)C2CCN(Cc4ccccc4)C3C2)c1 (configuration not stated) | 18 | 17 | 23.6 | 30.4 | 76.6 | – | 20.3 | 24.8 | 36.1 | 5.04 | 4.49 | 4.93 | 8.99 | – | 4.59 | 5.78 | 8.64 | 31 | 13.9 | 11.1
18 | O=S(=O)(O)c1ccc(N=Nc2nc(C(F)(F)F)c(C(F)(F)F)[nH]2)cc1 | > 100 | > 100 | > 100 | > 100 | > 100 | > 100 | > 100 | 46.6 | > 100 | – | – | – | – | – | – | – | – | – | – | –
19 | O=C(O)C1CC2(C1)CC(C(=O)O)C2 (configuration not stated) | > 100 | > 100 | > 100 | – | > 100 | > 100 | > 100 | > 100 | > 100 | – | – | – | – | – | – | – | – | > 100 | – | –
20 | CC(=O)N1N=C(c2ccc(Nc3ccnc4cc(Cl)ccc34)cc2)CC1c1ccc(Cl)cc1 (configuration not stated) | > 100 | > 100 | – | > 100 | > 100 | – | > 100 | > 100 | > 100 | > 100 | 7.19 | – | > 100 | – | > 100 | 5.24 | > 100 | > 100 | > 100 | > 100
21 | CN(C)C(=Nc1nc(=[N+](C)C)ss1)N(C)C | > 100 | – | > 100 | > 100 | > 100 | > 100 | > 100 | > 100 | > 100 | – | – | – | – | – | – | – | – | – | – | –
